Measurements reported in patent publication US8785631B2, “Oxazolone derivative compounds having a 3-oxa-1-azaspiro[4.5] core” (Seikagaku Corporation, priority 2006, dated 2014).
*1 amine or outer side, *2 acyl side, *3 side chain or, on linkers, in order; H or OH if unused. Where a SMILES comes first, the peptide text is derived from it. [ ]: non-standard residue; d: D form. The star is where a group is joined. Ac6c = NC1(C(=O)O)CCCCC1; Morpholide = C1CN(*)CCO1; Nle = CCCC[C@H](N)C(=O)O; Cbz = O=C(OCc1ccccc1)*; CO = O=C([*:1])[*:2]

Assays:
Human cathepsin B = biological target: T1, Human cathepsin B (Homo sapiens, UniProt P07858); test: Measurement of cathepsin B inhibitory activity; type: biochemical; conditions: selectivity ratio B/K
T1 construct: purchased Calbiochem Corp
Protocol: (§1) Human cathepsin B (Calbiochem Corp.) was used for measurement. Activity was measured based on decomposition of the fluorescent substrate Z-Arg-Arg-MCA (Peptide Institute, Inc.) in compliance with the method of Barrett, et al.^3). Namely, the decomposition of 20 mM Z-Arg-Arg-MCA by cathepsin B was measured in 100 mM sodium potassium phosphate, 1 mM EDTA, 8 mM cysteine and 0.005% Brij35 at pH 6.0. The reaction was carried out for 30 minutes at 30° C., and stopped by the addition of 2×10^−5 M Calpeptin. After stopping the reaction, fluorescent intensity was measured at an excitation wavelength of 355 nm and measurement wavelength of 460 nm. Inhibition of cathepsin B by the compounds was examined using the reaction system described above.

Human cathepsin L = biological target: T2, Human cathepsin L (Homo sapiens, UniProt P07711); test: Measurement of cathepsin L inhibitory activity; type: biochemical; conditions: selectivity ratio L/K
T2 construct: purchased Calbiochem Corp
Protocol: as §1, with “cathepsin L” for “cathepsin B”, “substrate Z-Phe-Arg-MCA” for “substrate Z-Arg-Arg-MCA”, “[…] Z-Phe-Arg-MCA” for “mM Z-Arg-Arg-MCA”, “sodium acetate, 5” for “sodium potassium phosphate, 1”, “EDTA, 4 mM urea,” for “EDTA,”, “pH 5.5.” for “pH 6.0.”

T2 sequence (P07711 114-333): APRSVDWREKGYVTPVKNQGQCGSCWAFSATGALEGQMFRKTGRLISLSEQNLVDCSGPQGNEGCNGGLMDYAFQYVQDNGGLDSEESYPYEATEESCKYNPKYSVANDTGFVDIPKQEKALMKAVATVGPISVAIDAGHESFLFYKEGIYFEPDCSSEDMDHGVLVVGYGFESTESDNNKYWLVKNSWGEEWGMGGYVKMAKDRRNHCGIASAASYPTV

| Compound | B/K (ratio of IC50 cathepsin B to cathepsin K) (Human cathepsin B) | L/K (ratio of IC50 cathepsin L to cathepsin K) (Human cathepsin L) |
| --- | --- | --- |
| CC(C)[C@@H](C=O)NC(=O)C1(NC(=O)c2ccco2)CCCCC1 [Reference Example 146, N-[[1-[(2-Furanylcarbonyl)amino]cyclohexyl]carbonyl]-L-valinal] | 87 | 370 |
| CC(C)[C@@H](C=O)NC(=O)C1(NC(=O)OCc2ccccc2)CCCCC1 [Reference Example 144, N-[[1-[[(Phenylmethoxy)carbonyl]amino]cyclohexyl]carbonyl]-L-valinal] (Cbz-[Ac6c]-Val-aldehyde) | 230 | 400 |
| CCCC[C@@H](C=O)NC(=O)[C@H](CC(C)C)NC(=O)OCc1ccccc1 [Reference Example 149, N—[N-[(Phenylmethoxy)carbonyl]-L-leucyl]-L-norleucinal] | 11 | 15 |
| CCCC[C@@H](C=O)NC(=O)C1(NC(=O)OCc2ccccc2)CCCCC1 [Reference Example 145, N-[[1-[[(Phenylmethoxy)carbonyl]amino]cyclohexyl]carbonyl]-L-norleucinal] (Cbz-[Ac6c]-[Nle]-aldehyde) | 35 | 50 |
| CCCC[C@@H](C=O)NC(=O)C1(NC(=O)N2CCOCC2)CCCCC1 [Reference Example 147, N-[[1-[(4-Morpholinylcarbonyl)amino]cyclohexyl]carbonyl]-L-norleucinal] ({Morpholide-CO}-[Ac6c]-[Nle]-aldehyde) | 12 | 21 |

Other lines, results leading:

| B/K (ratio of IC50 cathepsin B to cathepsin K) (Human cathepsin B) | L/K (ratio of IC50 cathepsin L to cathepsin K) (Human cathepsin L) | Compound |
| --- | --- | --- |
| 58 | 74 | CC(C)C[C@H](NC(=O)OCc1ccccc1)C(=O)N[C@H](C=O)C(C)C [Reference Example 148, N—[N-[(Phenylmethoxy)carbonyl]-L-leucyl]-L-valinal] (Cbz-Leu-Val-aldehyde) |
| 4.3 | 7.3 | CCCC[C@@H](C=O)NC(=O)[C@H](CC(C)C)NC(=O)N1CCOCC1 [Reference Example 150, N—[N-(4-Morpholinylcarbonyl)-L-leucyl]-L-norleucinal] |
| 30 | 35 | CC(C)C[C@H](NC(=O)c1ccco1)C(=O)N[C@H](C=O)C(C)C [Reference Example 151, N—[N-(2-Furanylcarbonyl)-L-leucyl]-L-valinal] |
